Results from patent US11541029B2, “High penetration compositions and their applications” (Techfields Pharma Co., Ltd., priority 2008, dated 2023).

What was measured:
[1] = system: Human colon cancer cells (LS174J); assay: Human colon cancer xenograft in nude mice; conditions: for tumor Size at day 30: about 50 μl of 5% topically every 12 hours; for Weight of mice at day 30: in vivo
Description: Human colon cancer cells (LS174J, 2-3 mm^3 of tumor tissue was used in each mouse) were subcutaneously xenografted into nude mice (BALB).

[2] = Distribution in organs of rats killed with CO2 (absence of general circulation); conditions: 5 hrs after 0.3 mmol/kg diethylaminoethyl acetylsalicylate HCl salt on back of killed rats;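 also: tissue concentration in nmol/g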
Description: 0.3 mmol/kg of diethylaminoethyl acetylsalicylate HCl salt (10% in pure water) was applied to the back of rats (10 cm^2) which were killed with CO2. The rats were shaken for 5 hrs, then the HPCs and parent drugs in organs of rats were determined.

[3] = system: rats given sterilized E. coli suspension as a pyrogen; assay: Antipyretic activity of aspirin and its HPC (Study B); type: in vivo
Description: […] Group A was the control group. The body temperature of rats was taken at 90 min. intervals before and after the administration of the test compounds.

[4] = system: type 2 diabetes rat models [SLAC/GK(Goto and Kakisaki)]; assay: Hypoglycemic effects of aspirin and its HPC in GK rats, once per day for 6 weeks; type: in vivo; conditions: for Blood Glucose Levels at day 1 / Blood Glucose Levels at day 42: no fasting, n = 5;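 as to Blood Glucose Levels at day 42: blood glucose in mg/dL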
Description: The blood glucose levels were measured three times every week (no fasting) from the third week to the sixth week.

Question: Which results are given for `CCN(CC)CCOC(=O)c1ccccc1Nc1cccc(C)c1C.Cl` [P-46, diethylaminoethyl 2-[(2,3-dimethylphenyl)amino]benzoate.HCl]?
Answer: tumor Size at day 30 [1]: 650 ± 250 mm^3; Weight of mice at day 30 [1]: 23 ± 3

Question: With `CCN(CC)CCOC(=O)c1ccccc1Nc1c(Cl)ccc(C)c1Cl.Cl` [P-47, diethylaminoethyl 2-[(2,6-dichloro-3-methylphenyl)amino]benzoate.HCl] as the compound, how does the “tumor Size at day 30” value [1] read?
Answer: 590 ± 350 mm^3

Question: What about the “Weight of mice at day 30” value [1] of the same compound?
Answer: 22 ± 2

Question: With `Cl.Nc1c(CC(=O)OCCN2CCOCC2)cccc1C(=O)c1ccccc1` [P-16, 2-(4-morpholinyl)ethyl 2-amino-3-benzoylbenzeneacetate.HCl] as the compound, how does the “tumor Size at day 30” value [1] read?
Answer: 590 ± 350 mm^3

Question: What about the “Weight of mice at day 30” value [1] of the same compound?
Answer: 23 ± 2

Question: With `CC(=O)Oc1ccccc1C(=O)O` [aspirin, acetylsalicylic acid, reference compound] as the compound, how does the “concentration in Leg muscle” value [2] read?
Answer: 6.7 ± 2.1 nmol/g

Question: What about the concentration in kidney [2] of the same compound?
Answer: 3.5 ± 2.1 nmol/g

Question: What about the concentration in liver [2] of the same compound?
Answer: 2.1 ± 1.0 nmol/g

Question: And the concentration in pancreas [2]?
Answer: 4.1 ± 1.3 nmol/g

Question: What about the concentration in stomach [2] of the same compound?
Answer: 4.7 ± 2.5 nmol/g

Question: And the body temperature ([3]; 20 mg/kg, orally, t = 0 min., in °C (unit assumed))?
Answer: 37.5 ± 0.2

Question: What about the body temperature ([3]; 20 mg/kg, orally, t = 90 min., in °C (unit assumed)) of the same compound?
Answer: 37.7 ± 0.3

Question: And the body temperature ([3]; 20 mg/kg, orally, t = 180 min., in °C (unit assumed))?
Answer: 37.4 ± 0.3

Question: What about the body temperature ([3]; 20 mg/kg, orally, t = 270 min., in °C (unit assumed)) of the same compound?
Answer: 37.4 ± 0.4

Question: What about the body temperature ([3]; 50 mg/kg, orally, t = 0 min., in °C (unit assumed)) of the same compound?
Answer: 37.5 ± 0.3

Question: And the body temperature ([3]; 50 mg/kg, orally, t = 90 min., in °C (unit assumed))?
Answer: 37.7 ± 0.3

Question: What about the body temperature ([3]; 50 mg/kg, orally, t = 180 min., in °C (unit assumed)) of the same compound?
Answer: 37.1 ± 0.3

Question: And the body temperature ([3]; 50 mg/kg, orally, t = 270 min., in °C (unit assumed))?
Answer: 37.0 ± 0.4

Question: And the body temperature ([3]; 100 mg/kg, orally, t = 0 min., in °C (unit assumed))?
Answer: 37.5 ± 0.2

Question: And the body temperature ([3]; 100 mg/kg, orally, t = 90 min., in °C (unit assumed))?
Answer: 37.3 ± 0.4

Question: And the body temperature ([3]; 100 mg/kg, orally, t = 180 min., in °C (unit assumed))?
Answer: 36.7 ± 0.3

Question: And the body temperature ([3]; 100 mg/kg, orally, t = 270 min., in °C (unit assumed))?
Answer: 36.8 ± 0.4

Question: What about the body temperature ([3]; groups H/I, 50 mg/kg, transdermally, t = 0 min., in °C (unit assumed)) of the same compound?
Answer: 37.6 ± 0.3

Question: And the body temperature ([3]; groups H/I, 50 mg/kg, transdermally, t = 90 min., in °C (unit assumed))?
Answer: 37.9 ± 0.3

Question: And the body temperature ([3]; groups H/I, 50 mg/kg, transdermally, t = 180 min., in °C (unit assumed))?
Answer: 37.8 ± 0.4

Question: What about the body temperature ([3]; groups H/I, 50 mg/kg, transdermally, t = 270 min., in °C (unit assumed)) of the same compound?
Answer: 37.7 ± 0.5

Question: What about the body temperature ([3]; groups J/K, 20 mg/kg, transdermally, t = 0 min., in °C (unit assumed)) of the same compound?
Answer: 37.6 ± 0.3

Question: What about the body temperature ([3]; groups J/K, 20 mg/kg, transdermally, t = 90 min., in °C (unit assumed)) of the same compound?
Answer: 37.8 ± 0.4

Question: And the body temperature ([3]; groups J/K, 20 mg/kg, transdermally, t = 180 min., in °C (unit assumed))?
Answer: 37.7 ± 0.4

Question: And the body temperature ([3]; groups J/K, 20 mg/kg, transdermally, t = 270 min., in °C (unit assumed))?
Answer: 38.0 ± 0.3

Question: What about the body temperature ([3]; groups L/M, 20 mg/kg, transdermally, t = 0 min.) of the same compound?
Answer: 37.5 ± 0.3

Question: And the body temperature ([3]; groups L/M, 20 mg/kg, transdermally, t = 90 min., in °C (unit assumed))?
Answer: 37.6 ± 0.5

Question: And the body temperature ([3]; groups L/M, 20 mg/kg, transdermally, t = 180 min., in °C (unit assumed))?
Answer: 37.8 ± 0.3

Question: What about the body temperature ([3]; groups L/M, 20 mg/kg, transdermally, t = 270 min., in °C (unit assumed)) of the same compound?
Answer: 37.9 ± 0.3

Question: And the antipyretic activity ([3]; transdermal administration)?
Answer: did not show any antipyretic activity

Question: And the “Blood Glucose Levels at day 1” value ([4]; 50 mg/kg, orally)?
Answer: 213.7 ± 20.5 mg/dL

Question: And the “Blood Glucose Levels at day 42” value ([4]; 50 mg/kg, orally)?
Answer: 243.4 ± 26.7 mg/dL

Question: What about the “Blood Glucose Levels at day 1” value ([4]; 50 mg/kg, transdermally) of the same compound?
Answer: 216.6 ± 17.3 mg/dL

Question: And the “Blood Glucose Levels at day 42” value ([4]; 50 mg/kg, transdermally)?
Answer: 258.2 ± 17.4 mg/dL

Question: What about the “Blood Glucose Levels at day 1” value ([4]; 100 mg/kg, orally) of the same compound?
Answer: 211.3 ± 21.5 mg/dL

Question: What about the “Blood Glucose Levels at day 42” value ([4]; 100 mg/kg, orally) of the same compound?
Answer: 219.4 ± 19.9 mg/dL

Question: And the “Blood Glucose Levels at day 1” value ([4]; 100 mg/kg, transdermally)?
Answer: 217.4 ± 18.9 mg/dL

Question: And the “Blood Glucose Levels at day 42” value ([4]; 100 mg/kg, transdermally)?
Answer: 255.4 ± 24.6 mg/dL

Question: What about the “Blood Glucose Levels at day 1” value ([4]; 200 mg/kg, orally) of the same compound?
Answer: 213.5 ± 21.5 mg/dL

Question: What about the “Blood Glucose Levels at day 42” value ([4]; 200 mg/kg, orally) of the same compound?
Answer: 195.4 ± 23.4 mg/dL

Question: And the “Blood Glucose Levels at day 1” value ([4]; 200 mg/kg, transdermally)?
Answer: 216.4 ± 21.9 mg/dL

Question: And the “Blood Glucose Levels at day 42” value ([4]; 200 mg/kg, transdermally)?
Answer: 247.4 ± 27.8 mg/dL

Question: And the “Blood Glucose Levels at day 1” value ([4]; 300 mg/kg, orally)?
Answer: 215.6 ± 22.4 mg/dL

Question: And the “Blood Glucose Levels at day 42” value ([4]; 300 mg/kg, orally)?
Answer: 165.4 ± 22.1 mg/dL

Question: What about the anti-diabetic effect ([4]; transdermal administration) of the same compound?
Answer: did not show any anti-diabetic effect

Question: What does the source list for `CN(C)CCCC(=O)OC1=C(C(=O)Nc2nccs2)N(C)S(=O)(=O)c2ccccc21.Cl` [P-52, N-(2-thiazoyl)-4-N,N-dimethylaminobutyryloxy-2-methyl-2H,1,2-benzothiazine-3-carboxamide 1,1-dioxide.HCl]?
Answer: tumor Size at day 30 [1]: 720 ± 280 mm^3; Weight of mice at day 30 [1]: 23 ± 3
